This is an account of results in patent US11279691B2, “Substituted pyridine and pyrazine compounds as PDE4 inhibitors” (Dart Neuroscience LLC, priority 2013, dated 2022).

Each structure is given as a SMILES string. A value given as a limit tells only on which side of the number the result lay.

In the test the target is T1, PDE4D3 (Homo sapiens, UniProt Q08499).
T1 construct: GST
T1 sequence (Q08499 1-673 isoform Q08499-2): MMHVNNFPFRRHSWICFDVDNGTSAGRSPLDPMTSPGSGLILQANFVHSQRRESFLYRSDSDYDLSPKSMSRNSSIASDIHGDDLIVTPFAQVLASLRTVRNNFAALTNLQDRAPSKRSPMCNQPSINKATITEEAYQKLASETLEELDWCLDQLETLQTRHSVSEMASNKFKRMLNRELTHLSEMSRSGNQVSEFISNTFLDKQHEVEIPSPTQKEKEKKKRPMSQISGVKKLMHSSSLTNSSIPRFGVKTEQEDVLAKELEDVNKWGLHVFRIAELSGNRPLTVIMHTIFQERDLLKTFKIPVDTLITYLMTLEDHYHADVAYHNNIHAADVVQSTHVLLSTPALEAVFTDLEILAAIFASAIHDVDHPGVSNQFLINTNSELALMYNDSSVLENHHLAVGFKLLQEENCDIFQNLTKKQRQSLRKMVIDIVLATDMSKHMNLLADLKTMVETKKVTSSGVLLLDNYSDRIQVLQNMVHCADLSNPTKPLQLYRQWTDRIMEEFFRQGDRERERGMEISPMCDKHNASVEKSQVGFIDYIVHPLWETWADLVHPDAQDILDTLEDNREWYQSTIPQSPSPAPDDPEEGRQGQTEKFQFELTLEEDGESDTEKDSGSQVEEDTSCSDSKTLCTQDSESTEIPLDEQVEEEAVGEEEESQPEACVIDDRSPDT
Type of test: biochemical. Particulars: GST-tagged PDE4D3, 200 nM FAM-cAMP, 11-point dose-response; read-out: PD4d3 pEC50 (converted).
`COc1ncc(Cn2cc(CO)nc2C)cc1-c1ccnc(OC(F)F)c1` [Example 315, [1-({5-[2-(Difluoromethoxy)pyridin-4-yl]-6-methoxypyridin-3-yl}methyl)-2-methyl-1H-imidazol-4-yl]methanol]: the EC50 was 100 to 1000 nM.
With `CCOc1ncc(Cn2cnc(CO)n2)cc1-c1cccc(C(F)(F)F)c1` [Example 332, [1-({6-Ethoxy-5-[3-(trifluoromethyl)phenyl]pyridin-3-yl}methyl)-1H-1,2,4-triazol-3-yl]methanol], the EC50 was 1000 to 10000 nM.
In the case of `COc1ncc(Cn2cc(CO)nc2C)cc1-c1ccc(F)cc1` [Example 344, (1-{[5-(4-Fluorophenyl)-6-methoxypyridin-3-yl]methyl}-2-methyl-1H-imidazol-4-yl)methanol] it was 100 to 1000 nM.
In the case of `COc1ncc(Cn2ccc(C(N)=O)n2)cc1-c1ccnc(C#N)c1` [Example 307, 1-{[5-(2-Cyanopyridin-4-yl)-6-methoxypyridin-3-yl]methyl}-1H-pyrazole-3-carboxamide] it was 1000 to 10000 nM; in that of `COc1ncc(Cn2nnnc2CCO)cc1-c1cccc(Cl)c1` [Example 295, 2-(1-((5-(3-Chlorophenyl)-6-methoxypyridin-3-yl)methyl)-1H-tetrazol-5-yl)ethanol], 1000 to 10000 nM.
In the case of `CCOc1ncc(Cn2cnc(CO)n2)cc1-c1ccc(F)c(F)c1` [Example 340, (1-{[5-(3,4-Difluorophenyl)-6-ethoxypyridin-3-yl]methyl}-1H-1,2,4-triazol-3-yl)methanol] it was below 100 nM; in that of `COc1ncc(Cc2cnc(N)c(F)c2)cc1-c1ccnc(OC(F)F)c1` [Example 301, 5-((2′-(Difluoromethoxy)-2-methoxy-[3,4′-bipyridin]-5-yl)methyl)-3-fluoropyridin-2-amine], below 100 nM.
For the molecule `COc1ncc(Cc2ccc(CC(N)=O)cc2)cc1-c1cccc(Cl)c1` [Example 280, 2-(4-((5-(3-Chlorophenyl)-6-methoxypyridin-3-yl)methyl)phenyl)acetamide], the EC50 was below 100 nM.
Under `CCOc1ncc(Cn2nnnc2C)cc1-c1ccc(F)cc1` [Example 296, 2-Ethoxy-3-(4-fluorophenyl)-5-((5-methyl-1H-tetrazol-1-yl)methyl)pyridine] stands below 100 nM; under `CCCOc1ncc(Cc2cnc(N)nc2)cc1-c1ccc(F)c(F)c1` [Example 278, 5-((5-(3,4-Difluorophenyl)-6-propoxypyridin-3-yl)methyl)pyrimidin-2-amine], below 100 nM.
In the case of `CCOc1ncc(Cn2nnnc2C)cc1-c1cccc(OC(F)F)c1` [Example 399, 3-[3-(Difluoromethoxy)phenyl]-2-ethoxy-5-[(5-methyl-1H-1,2,3,4-tetrazol-1-yl)methyl]pyridine] it was below 100 nM.
Under `COc1ncc(Cn2ccc(C(N)=O)n2)cc1-c1ccnc(OC(F)F)c1` [Example 309, 1-({5-[2-(Difluoromethoxy)pyridin-4-yl]-6-methoxypyridin-3-yl}methyl)-1H-pyrazole-3-carboxamide] stands below 100 nM; under `COc1ncc(Cn2cc(C(F)F)nc2C)cc1-c1ccnc(OC(F)F)c1` [Example 297, 2′-(Difluoromethoxy)-5-((4-(difluoromethyl)-2-methyl-1H-imidazol-1-yl)methyl)-2-methoxy-3,4′-bipyridine], 100 to 1000 nM.
Regarding `COc1ncc(Cc2cnc(N)nc2)cc1-c1ccnc(C#N)c1` [Example 347, 4-{5-[(2-Aminopyrimidin-5-yl)methyl]-2-methoxypyridin-3-yl}pyridine-2-carbonitrile], the EC50 was 100 to 1000 nM.
`CCOc1cccc(-c2cc(Cn3cnc(CO)n3)cnc2OCC)c1` [Example 334, (1-{[6-Ethoxy-5-(3-ethoxyphenyl)pyridin-3-yl]methyl}-1H-1,2,4-triazol-3-yl)methanol]: the EC50 was 100 to 1000 nM.
Under `CCOc1ncc(Cc2cnc(N)nc2)cc1-c1ccc(F)cc1` [Example 350, 5-{[6-Ethoxy-5-(4-fluorophenyl)pyridin-3-yl]methyl}pyrimidin-2-amine] stands below 100 nM.
Under `COc1ncc(Cc2cnc(CO)cn2)cc1-c1cccc(Cl)c1` [Example 376, (5-{[5-(3-Chlorophenyl)-6-methoxypyridin-3-yl]methyl}pyrazin-2-yl)methanol] stands below 100 nM; under `COc1ncc(Cc2cnc(N)cn2)cc1-c1cccc(Cl)c1` [Example 287, 5-((5-(3-Chlorophenyl)-6-methoxypyridin-3-yl)methyl)pyrazin-2-amine], below 100 nM; under `COc1ncc(Cn2cc(CO)nc2C)cc1-c1cccc(Cl)c1` [Example 346, (1-{[5-(3-Chlorophenyl)-6-methoxypyridin-3-yl]methyl}-2-methyl-1H-imidazol-4-yl)methanol], 100 to 1000 nM.
In the case of `CCOc1cc(-c2cc(Cn3nnnc3C)cnc2OCC)ccn1` [Example 400, 2-Ethoxy-3-(2-ethoxypyridin-4-yl)-5-[(5-methyl-1H-1,2,3,4-tetrazol-1-yl)methyl]pyridine], the EC50 is 100 to 1000 nM.
Under `COc1ncc(Cc2cnc(C(C)(C)C(N)=O)nc2)cc1-c1cccc(Cl)c1` [Example 367, 2-(5-{[5-(3-Chlorophenyl)-6-methoxypyridin-3-yl]methyl}pyrimidin-2-yl)-2-methylpropanamide] stands 100 to 1000 nM; under `CCOc1cc(-c2cc(Cc3cnc(N)nc3)cnc2OC)ccc1F` [Example 355, 5-{[5-(3-Ethoxy-4-fluorophenyl)-6-methoxypyridin-3-yl]methyl}pyrimidin-2-amine], 100 to 1000 nM; under `CCOc1ncc(Cc2cnc(N)nc2)nc1-c1ccc(F)c(F)c1` [Example 293, 5-((6-(3,4-difluorophenyl)-5-ethoxypyrazin-2-yl)methyl)pyrimidin-2-amine], below 100 nM.
Under `COc1ncc(Cc2ccc(CC(N)=O)cc2)cc1-c1ccc(Cl)c(F)c1` [Example 365, 2-(4-{[5-(4-Chloro-3-fluorophenyl)-6-methoxypyridin-3-yl]methyl}phenyl)acetamide] stands below 100 nM.
Under `CCOc1ncc(Cn2nnc(C)n2)cc1-c1ccc(F)c(F)c1` [Example 393, 3-(3,4-Difluorophenyl)-2-ethoxy-5-[(5-methyl-2H-1,2,3,4-tetrazol-2-yl)methyl]pyridine] stands below 100 nM; under `N#CCc1ncc(Cc2cnc(OCC(F)F)c(-c3cccc(Cl)c3)c2)cn1` [Example 348, 2-(5-{[5-(3-Chlorophenyl)-6-(2,2-difluoroethoxy)pyridin-3-yl]methyl}pyrimidin-2-yl)acetonitrile], below 100 nM.
As to `COc1ncc(Cc2cnc(CC(N)=O)nc2)cc1-c1ccc(F)c(F)c1` [Example 368, 2-(5-{[5-(3,4-Difluorophenyl)-6-methoxypyridin-3-yl]methyl}pyrimidin-2-yl)acetamide], the EC50 was below 100 nM.
In the case of `Nc1ncn(Cc2cnc(OC(F)F)c(-c3cccc(Cl)c3)c2)n1` [Example 218, 1-{[5-(3-Chlorophenyl)-6-(difluoromethoxy)pyridin-3-yl]methyl}-1H-1,2,4-triazol-3-amine] it was 100 to 1000 nM; in that of `CCOc1ncc(Cn2cnc(C(N)=O)c2)nc1-c1cccc(Cl)c1` [Example 312, 1-{[6-(3-Chlorophenyl)-5-ethoxypyrazin-2-yl]methyl}-1H-imidazole-4-carboxamide], below 100 nM.
Turning to `COc1ncc(Cc2cnc(N3CCC(O)C3)nc2)cc1-c1cccc(Cl)c1` (centres unmarked) [Example 389, 1-(5-{[5-(3-Chlorophenyl)-6-methoxypyridin-3-yl]methyl}pyrimidin-2-yl)pyrrolidin-3-ol], the EC50 is 100 to 1000 nM.
Under `CCOc1ncc(Cc2cnc(N)nc2)cc1-c1ccc(Cl)cc1` [Example 351, 5-{[5-(4-Chlorophenyl)-6-ethoxypyridin-3-yl]methyl}pyrimidin-2-amine] stands 100 to 1000 nM; under `COc1ncc(Cn2nnc(CO)n2)cc1-c1ccc(Cl)c(F)c1` [Example 385, (2-{[5-(4-Chloro-3-fluorophenyl)-6-methoxypyridin-3-yl]methyl}-2H-1,2,3,4-tetrazol-5-yl)methanol], 100 to 1000 nM.
Under `CCOC(=O)Cc1ccc(Cc2cnc(OC)c(-c3ccc(F)c(F)c3)c2)cc1` [Intermediate 49, Ethyl 2-(4-{[5-(3,4-difluorophenyl)-6-methoxypyridin-3-yl]methyl}phenyl)acetate] stands below 100 nM; under `COc1ncc(Cc2cnc(CC(N)=O)nc2)cc1-c1cccc(Cl)c1` [Example 369, 2-(5-{[5-(3-Chlorophenyl)-6-methoxypyridin-3-yl]methyl}pyrimidin-2-yl)acetamide], below 100 nM; under `CCOc1ncc(Cn2nc(CO)cc2C)nc1-c1cccc(Cl)c1` [Example 323, (1-{[6-(3-Chlorophenyl)-5-ethoxypyrazin-2-yl]methyl}-5-methyl-1H-pyrazol-3-yl)methanol], 1000 to 10000 nM.
Under `COc1ncc(Cn2nnc(CO)n2)cc1-c1ccc(F)cc1` [Example 381, (2-{[5-(4-Fluorophenyl)-6-methoxypyridin-3-yl]methyl}-2H-1,2,3,4-tetrazol-5-yl)methanol] stands 100 to 1000 nM; under `CCOc1ncc(Cn2cnc(C(N)=O)c2)nc1-c1ccc(F)c(F)c1` [Example 314, 1-{[6-(3,4-Difluorophenyl)-5-ethoxypyrazin-2-yl]methyl}-1H-imidazole-4-carboxamide], 100 to 1000 nM.
Turning to `CCOc1ncc(Cn2nnnc2C)cc1-c1cc(F)cc(OC)c1` [Example 402, 2-Ethoxy-3-(3-fluoro-5-methoxyphenyl)-5-[(5-methyl-1H-1,2,3,4-tetrazol-1-yl)methyl]pyridine], the EC50 is 100 to 1000 nM.
In the case of `COc1ncc(Cc2cnc(N)cn2)cc1-c1ccc(Cl)c(F)c1` [Example 379, 5-{[5-(4-Chloro-3-fluorophenyl)-6-methoxypyridin-3-yl]methyl}pyrazin-2-amine], the EC50 was 100 to 1000 nM.
Under `CCOc1ncc(Cn2cnc(CO)n2)cc1-c1ccccc1F` [Example 277, (1-((6-Ethoxy-5-(2-fluorophenyl)pyridin-3-yl)methyl)-1H-1,2,4-triazol-3-yl)methanol] stands above 10000 nM.
Under `COc1ncc(Cc2cnc(CO)nc2)cc1-c1cccc(Cl)c1` [Example 299, (5-((5-(3-Chlorophenyl)-6-methoxypyridin-3-yl)methyl)pyrimidin-2-yl)methanol] stands below 100 nM.
